A word on the Kd: it is a measure of binding affinity in units of concentration.

What all share (experiment): biochemical
Assay type in all cases: binding

For one experiment, the target named is T1, ABL2 (Homo sapiens, UniProt P42684).
T1 construct: the DNA-tagged SH2 domain concentrations used in this study were <0.1 nM; made in house; host or cells: HEK293 (transient transfection; unpurified extract)
T1 sequence (P42684 173-263 limits assumed): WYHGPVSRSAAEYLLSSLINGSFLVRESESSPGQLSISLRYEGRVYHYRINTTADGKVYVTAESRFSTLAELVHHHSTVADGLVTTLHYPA

The next experiment deals with T2, CSK (Homo sapiens, UniProt P41240).
T2 construct: the DNA-tagged SH2 domain concentrations used in this study were <0.1 nM; made in house; host or cells: HEK293 (transient transfection; unpurified extract)
T2 sequence (P41240 82-171 limits assumed): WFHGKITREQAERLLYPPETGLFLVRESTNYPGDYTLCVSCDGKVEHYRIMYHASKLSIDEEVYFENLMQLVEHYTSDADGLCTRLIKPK
Particulars: primary screen, 10 μM.

Another experiment concerns the target T3, HSH2D (Homo sapiens, UniProt Q96JZ2).
T3 construct: the DNA-tagged SH2 domain concentrations used in this study were <0.1 nM; made in house; host or cells: HEK293 (transient transfection, unpurified extract)
T3 sequence (Q96JZ2 34-125 limits assumed): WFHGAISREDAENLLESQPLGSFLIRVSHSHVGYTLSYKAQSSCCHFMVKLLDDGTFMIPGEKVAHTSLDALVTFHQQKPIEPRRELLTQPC

A further experiment concerns the target T4, MATK (Homo sapiens, UniProt P42679).
T4 construct: the DNA-tagged SH2 domain concentrations used in this study were <0.1 nM; made in house; host or cells: HEK293 (transient transfection, unpurified extract)
T4 sequence (P42679 122-211 limits assumed): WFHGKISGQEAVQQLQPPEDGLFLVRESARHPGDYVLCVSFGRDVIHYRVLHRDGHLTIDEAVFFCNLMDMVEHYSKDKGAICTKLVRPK
Conditions: read-out: percent of DMSO vehicle control.

Another experiment deals with T5, PLCG2(SH2dom.C-term.) (Homo sapiens, UniProt P16885).
T5 construct: SH2dom.C-term. denotes SH2 domain closest to C-terminus of protein; made in house; host or cells: HEK293 (transient transfection, unpurified extract)
T5 sequence (P16885 646-735 limits assumed): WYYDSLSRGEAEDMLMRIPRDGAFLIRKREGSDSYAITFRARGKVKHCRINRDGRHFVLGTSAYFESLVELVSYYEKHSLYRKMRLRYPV
Particulars: read-out: percent of DMSO vehicle control.

The next experiment concerns the target T6, PLCG2(SH2dom.N-term.) (Homo sapiens, UniProt P16885).
T6 construct: SH2dom.N-term. denotes SH2 domain closest to N-terminus of protein; made in house; host or cells: HEK293 (transient transfection, unpurified extract)
T6 sequence (P16885 532-635 limits assumed): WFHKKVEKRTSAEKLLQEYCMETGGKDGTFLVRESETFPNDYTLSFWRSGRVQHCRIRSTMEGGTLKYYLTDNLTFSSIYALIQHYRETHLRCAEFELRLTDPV
Conditions: read-out: percent of DMSO vehicle control.

The next experiment concerns the target T7, SH2B (SH2B1) (Homo sapiens, UniProt Q9NRF2).
T7 construct: made in house; host or cells: HEK293 (transient transfection), unpurified extract
Conditions: read-out: percent of DMSO vehicle control.

For the next experiment, the target named is T8, SHIP1 (Homo sapiens, UniProt Q92835).
T8 construct: made in house; host or cells: HEK293 (transient transfection), unpurified extract
T8 sequence (Q92835 1-1189): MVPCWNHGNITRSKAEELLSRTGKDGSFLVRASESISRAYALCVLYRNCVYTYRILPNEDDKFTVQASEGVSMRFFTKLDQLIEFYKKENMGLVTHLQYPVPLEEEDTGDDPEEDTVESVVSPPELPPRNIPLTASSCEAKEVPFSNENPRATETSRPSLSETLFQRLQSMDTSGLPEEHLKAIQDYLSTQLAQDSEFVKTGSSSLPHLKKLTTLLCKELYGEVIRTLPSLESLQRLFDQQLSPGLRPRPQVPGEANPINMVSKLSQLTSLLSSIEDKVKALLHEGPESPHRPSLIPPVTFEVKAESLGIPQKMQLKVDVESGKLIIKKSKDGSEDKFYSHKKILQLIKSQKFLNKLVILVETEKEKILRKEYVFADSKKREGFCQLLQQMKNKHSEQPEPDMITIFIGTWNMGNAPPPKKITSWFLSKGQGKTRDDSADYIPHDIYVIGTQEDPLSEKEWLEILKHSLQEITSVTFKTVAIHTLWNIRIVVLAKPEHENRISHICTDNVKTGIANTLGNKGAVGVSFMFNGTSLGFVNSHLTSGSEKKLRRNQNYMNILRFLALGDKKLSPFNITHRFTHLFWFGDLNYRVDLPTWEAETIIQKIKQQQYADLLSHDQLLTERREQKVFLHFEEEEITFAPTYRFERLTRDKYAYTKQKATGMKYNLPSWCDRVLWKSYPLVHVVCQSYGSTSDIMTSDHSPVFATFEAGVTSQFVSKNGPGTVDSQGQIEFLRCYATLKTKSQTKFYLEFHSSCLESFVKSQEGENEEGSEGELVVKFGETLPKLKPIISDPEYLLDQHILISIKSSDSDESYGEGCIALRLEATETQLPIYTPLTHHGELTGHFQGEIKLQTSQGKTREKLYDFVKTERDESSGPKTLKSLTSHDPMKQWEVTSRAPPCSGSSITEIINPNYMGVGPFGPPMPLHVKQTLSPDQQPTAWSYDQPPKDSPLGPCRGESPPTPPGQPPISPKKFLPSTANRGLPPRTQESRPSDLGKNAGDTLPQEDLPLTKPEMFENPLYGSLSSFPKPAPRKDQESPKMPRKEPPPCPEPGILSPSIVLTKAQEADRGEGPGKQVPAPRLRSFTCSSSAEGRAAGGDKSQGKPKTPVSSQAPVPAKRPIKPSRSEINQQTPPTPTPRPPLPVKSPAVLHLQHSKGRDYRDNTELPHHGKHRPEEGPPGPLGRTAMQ
Conditions: for percent of DMSO vehicle control: primary screen, 10 μM.

In another experiment the target is T9, SOCS2 (Homo sapiens, UniProt O14508).
T9 construct: made in house; host or cells: HEK293 (transient transfection), unpurified extract
T9 sequence (O14508 1-198): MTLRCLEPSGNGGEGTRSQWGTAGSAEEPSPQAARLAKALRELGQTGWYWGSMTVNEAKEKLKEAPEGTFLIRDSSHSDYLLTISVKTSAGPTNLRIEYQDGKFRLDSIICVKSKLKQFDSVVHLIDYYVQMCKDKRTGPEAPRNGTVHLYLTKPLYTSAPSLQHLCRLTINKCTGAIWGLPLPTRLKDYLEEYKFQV
Conditions: for remaining activity at 10 µM: read-out: percent of DMSO vehicle control.

A further experiment has as its target T10, STAT2 (Homo sapiens, UniProt P52630).
T10 construct: made in house; host or cells: HEK293 (transient transfection), unpurified extract

A further experiment deals with T11, YES (Homo sapiens, UniProt P07947).
T11 construct: the DNA-tagged SH2 domain concentrations used in this study were <0.1 nM; made in house; host or cells: HEK293 (transient transfection; unpurified cell extract)
Particulars: read-out: percent of DMSO vehicle control.

Where [1] appears, read: primary screen, 10 μM, read-out: percent of DMSO vehicle control.
Setting [2] is: read-out: percent of DMSO vehicle control.

Like-named read-outs stand apart in the source and are kept apart here.

T10 sequence (P52630 whole entry): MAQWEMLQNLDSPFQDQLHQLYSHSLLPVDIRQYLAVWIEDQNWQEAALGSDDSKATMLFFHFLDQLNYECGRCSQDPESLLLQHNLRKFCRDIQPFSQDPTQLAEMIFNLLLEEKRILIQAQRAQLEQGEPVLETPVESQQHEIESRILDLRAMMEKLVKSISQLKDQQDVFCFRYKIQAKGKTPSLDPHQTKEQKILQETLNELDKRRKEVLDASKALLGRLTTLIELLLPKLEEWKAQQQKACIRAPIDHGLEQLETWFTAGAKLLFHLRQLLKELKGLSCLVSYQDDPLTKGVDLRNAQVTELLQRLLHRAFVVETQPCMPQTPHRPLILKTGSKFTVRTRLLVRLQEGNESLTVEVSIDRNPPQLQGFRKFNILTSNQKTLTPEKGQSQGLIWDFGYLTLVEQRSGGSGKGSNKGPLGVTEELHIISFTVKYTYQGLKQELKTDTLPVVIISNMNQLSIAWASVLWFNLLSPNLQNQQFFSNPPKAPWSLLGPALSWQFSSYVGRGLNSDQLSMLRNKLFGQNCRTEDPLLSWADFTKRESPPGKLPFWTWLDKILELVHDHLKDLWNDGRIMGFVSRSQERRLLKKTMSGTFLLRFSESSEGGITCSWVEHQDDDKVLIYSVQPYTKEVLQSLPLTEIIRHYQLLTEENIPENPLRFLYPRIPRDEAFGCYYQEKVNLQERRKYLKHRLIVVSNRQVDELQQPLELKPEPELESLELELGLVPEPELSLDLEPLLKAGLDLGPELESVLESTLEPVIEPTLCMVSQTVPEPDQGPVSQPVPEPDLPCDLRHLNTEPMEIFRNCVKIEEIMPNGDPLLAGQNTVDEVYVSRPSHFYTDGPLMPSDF
T11 sequence (P07947 158-255 limits assumed): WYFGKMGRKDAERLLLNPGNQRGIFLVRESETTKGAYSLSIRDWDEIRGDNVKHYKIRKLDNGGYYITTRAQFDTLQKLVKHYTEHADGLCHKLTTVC

As for `O=C(CCl)Nc1cccc(CNC(=O)[C@H](Cc2ccc(OP(=O)(O)O)cc2)NC(=O)Cc2ccc(F)cc2)c1` [MN551], the remaining activity at 10 µM was determined as 94.6 ± 1.6% on ABL2 (setting [1]); 3 ± 0.2% on HSH2D (setting [1]); 60.4 ± 2.8% on MATK (primary screen, 10 μM); 133% on PLCG2(SH2dom.C-term.) (primary screen, 10 μM); 109% on PLCG2(SH2dom.N-term.) (primary screen, 10 μM); 105% on SH2B (SH2B1) (primary screen, 10 μM). Besides, the remaining activity at 10 µM amounted to 0% on SOCS2 (primary screen, 10 μM); 217% on STAT2 (setting [1]); 46.5 ± 2.1% on YES (primary screen, 10 μM). For the same compound, the “percent of DMSO vehicle control” value on CSK was 105.0%; at SHIP1, 19.1%. The Kd at HSH2D (dose-response, read-out: KD) is 8.7 µM; on SOCS2 (dose-response, read-out: KD), 0.4 µM. Besides, the KD entry on SHIP1 (dose-response) is reported as “No Hit”.
Regarding `CC(=O)N[C@@H](Cc1ccc(CP(=O)(O)O)cc1)C(=O)NC1(C(=O)N[C@@H](CC(N)=O)C(=O)NCCCc2c(O)ccc3ccccc23)CCCCC1` [CGP78850], the Kd at ABL2 turned out to be 1.1 ± 0.12 µM; on HSH2D, 1.6 ± 0.35 µM. Besides, the percent of DMSO vehicle control at 10 µM turned out to be 6.2 ± 0.1% at ABL2 (setting [2]), 8.1 ± 6.6% at HSH2D (setting [2]), 153 ± 7.1% at MATK and 27.3% at STAT2 (setting [2]). The “percent of DMSO vehicle control” value on CSK is given as 119.6±4.5%; at SHIP1 it was 77.7±20.9%. The remaining activity at 10 µM at PLCG2(SH2dom.C-term.) stood at 104 ± 2.7%; at PLCG2(SH2dom.N-term.), 87.2 ± 19.7%; at SH2B (SH2B1) it was 125 ± 1.9%; at SOCS2, 119 ± 4.7%; on YES it was 66.7 ± 8.3%. The KD result on STAT2 (dose-response) is recorded as “No Hit”.
Turning to `CC(=O)N1CC[C@H]2CC[C@@H](C(=O)N[C@@H](CCC(N)=O)C(=O)NC(c3ccccc3)c3ccccc3)N2C(=O)[C@@H](NC(=O)c2cc3cc(C(F)(F)P(=O)(O)O)ccc3[nH]2)C1` [SI-109], the percent of DMSO vehicle control at 10 µM on ABL2 (setting [2]) stood at 122%; at HSH2D (setting [2]), 154%; on MATK, 163%; on STAT2 (setting [2]) it was 100%. The results for the “percent of DMSO vehicle control” value at CSK and at SHIP1 were 121.2% and 101.8%, respectively. In addition, the remaining activity at 10 µM on PLCG2(SH2dom.C-term.) came out at 98.7 ± 6.9%; on PLCG2(SH2dom.N-term.), 112%; at SH2B (SH2B1), 149%; at SOCS2, 142%; at YES it was 113%. In addition, at STAT2, binding was put at a Kd of 1.3 ± 1.3 µM.

For the origin of these results see PMC12951562, “SH2scan: Mapping SH2 Domain-Ligand Binding Selectivity for Inhibitors and Degraders” (Journal of Medicinal Chemistry, 2026).
